Results: ChEMBL document CHEMBL1201862, “PubChem BioAssay data set” (2004)
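Briefly, cells in 96-well plates were exposed to five compound concentrations for 48 h, and endpoints were estimated by linear interpolation. GI50 = concentration required for 50% inhibition of growth.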 Calls of active or inactive are those of the source. Rule as the data show it: active = GI50 up to about 1.1 µM and inactive = higher.

Legend:
Experiment in all cases: DTP human tumour cell line panel, 48 h
HOP-62 = tested on: HOP-62
NCI/ADR-RES = tested on: NCI/ADR-RES
SK-MEL-5 = tested on: SK-MEL-5
A549 = tested on: A549
NCI-H460 = tested on: NCI-H460
HCT-116 = tested on: HCT-116
HT-29 = tested on: HT-29
786-0 = tested on: 786-0
COLO 205 = tested on: COLO 205
RPMI-8226 = tested on: RPMI-8226
EKVX = tested on: EKVX
IGROV-1 = tested on: IGROV-1
OVCAR-4 = tested on: OVCAR-4
ACHN = tested on: ACHN
MDA-MB-231 = tested on: MDA-MB-231
PC-3 = tested on: PC-3
SK-OV-3 = tested on: SK-OV-3
UO-31 = tested on: UO-31
KM12 = tested on: KM12
K562 = tested on: K562

SMILES	GI50 (HOP-62)	GI50 (NCI/ADR-RES)	GI50 (SK-MEL-5)	GI50 (A549)	GI50 (NCI-H460)	GI50 (HCT-116)	GI50 (HT-29)	GI50 (786-0)	GI50 (COLO 205)	GI50 (RPMI-8226)	GI50 (EKVX)	GI50 (IGROV-1)	GI50 (OVCAR-4)	GI50 (ACHN)	GI50 (MDA-MB-231)	GI50 (PC-3)	GI50 (SK-OV-3)	GI50 (UO-31)	GI50 (KM12)	GI50 (K562)
c1c[nH]c(CN2CCN(Cc3ncc[nH]3)CC2)n1	> 100 µM (inactive)	> 100 µM (inactive)	> 100 µM (inactive)	> 100 µM (inactive)	> 100 µM (inactive)	> 100 µM (inactive)	> 100 µM (inactive)	> 100 µM (inactive)	> 100 µM (inactive)	> 100 µM (inactive)	52.2 µM (inactive)	> 100 µM (inactive)	> 100 µM (inactive)	> 100 µM (inactive)	> 100 µM (inactive)	> 100 µM (inactive)	> 100 µM (inactive)	> 100 µM (inactive)	> 100 µM (inactive)	
O=C1Nc2ccccc2/C1=N/NC(=S)N1CCCCC1	0.3 µM (active)	0.0415 µM (active)	0.0667 µM (active)	0.428 µM (active)	0.0841 µM (active)	0.216 µM (active)	0.946 µM (active)	0.301 µM (active)	0.774 µM (active)	0.299 µM (active)	1.31 µM (inactive)	0.138 µM (active)	1.53 µM (inactive)	0.397 µM (active)	0.393 µM (active)	0.337 µM (active)	2.01 µM (inactive)	0.592 µM (active)	0.0841 µM (active)	
O=C(CNc1c(Cl)cccc1Cl)NC1C=Cc2ccc(S(=O)(=O)Nc3c(Cl)cccc3Cl)cc2C1=O (centres undefined)	41.4 µM (inactive)	> 100 µM (inactive)		> 100 µM (inactive)	> 100 µM (inactive)	> 100 µM (inactive)	50.2 µM (inactive)	> 100 µM (inactive)	> 100 µM (inactive)	> 100 µM (inactive)	17.7 µM (inactive)	2.4 µM (inactive)	> 100 µM (inactive)	> 100 µM (inactive)	51.3 µM (inactive)	23.7 µM (inactive)	> 100 µM (inactive)	26.9 µM (inactive)	35.9 µM (inactive)	> 100 µM (inactive)
CN(C)CCOC1(Cc2ccc(Cl)cc2Cl)CCC(C(C)(C)C)CC1 (centres undefined)	1.74 µM (inactive)	2.3 µM (inactive)	1.56 µM (inactive)	3.18 µM (inactive)	1.66 µM (inactive)	1.6 µM (inactive)	1.52 µM (inactive)	1.83 µM (inactive)	1.62 µM (inactive)	2.16 µM (inactive)		3.44 µM (inactive)	1.81 µM (inactive)	2.99 µM (inactive)	7 µM (inactive)	1.48 µM (inactive)	2.25 µM (inactive)		1.77 µM (inactive)	1.6 µM (inactive)
O=C(Nc1ccc2[nH]c(C(=O)N3CC(CCl)c4c3cc([N+](=O)[O-])c3ccccc43)cc2c1)Nc1ccc2[nH]c(C(=O)N3CC(CCl)c4c3cc([N+](=O)[O-])c3ccccc43)cc2c1 (centres undefined)	> 100 µM (inactive)	> 100 µM (inactive)	> 100 µM (inactive)	> 100 µM (inactive)	> 100 µM (inactive)	> 100 µM (inactive)		> 100 µM (inactive)	> 100 µM (inactive)	85.7 µM (inactive)	> 100 µM (inactive)		> 100 µM (inactive)	> 100 µM (inactive)	27.5 µM (inactive)	> 100 µM (inactive)	> 100 µM (inactive)	17.9 µM (inactive)	> 100 µM (inactive)	
COc1cc(/C=C/c2cc(/C=C/c3ccc(O)c(OC)c3)oc(=O)c2)ccc1O	4.92 µM (inactive)	4.38 µM (inactive)	4.99 µM (inactive)	3.17 µM (inactive)	2.29 µM (inactive)	3.67 µM (inactive)	2.84 µM (inactive)	5.62 µM (inactive)	13.1 µM (inactive)	2.3 µM (inactive)	3.1 µM (inactive)	4.67 µM (inactive)	3.84 µM (inactive)	3.26 µM (inactive)	13.9 µM (inactive)	3.91 µM (inactive)	9.04 µM (inactive)	3.01 µM (inactive)	3.18 µM (inactive)	4.43 µM (inactive)
CC(=O)OCc1cn(S(=O)(=O)c2ccc(C)cc2)cn1	> 100 µM (inactive)	> 100 µM (inactive)	46.9 µM (inactive)	84.5 µM (inactive)	30.1 µM (inactive)	24 µM (inactive)	20.7 µM (inactive)	> 100 µM (inactive)	73.6 µM (inactive)	> 100 µM (inactive)	> 100 µM (inactive)	> 100 µM (inactive)	> 100 µM (inactive)	> 100 µM (inactive)	> 100 µM (inactive)	> 100 µM (inactive)	> 100 µM (inactive)	> 100 µM (inactive)		> 100 µM (inactive)
CCOC(CI)O[C@@H]1C=C[C@H](OC(C)=O)C1 (some centres undefined)	84.7 µM (inactive)	> 100 µM (inactive)		> 100 µM (inactive)	> 100 µM (inactive)	> 100 µM (inactive)	> 100 µM (inactive)	> 100 µM (inactive)	> 100 µM (inactive)	> 100 µM (inactive)	> 100 µM (inactive)		> 100 µM (inactive)	> 100 µM (inactive)	> 100 µM (inactive)	> 100 µM (inactive)	> 100 µM (inactive)	> 100 µM (inactive)	30.1 µM (inactive)	> 100 µM (inactive)
Cc1cn(C2C=CC(COP(=O)(OCC3=CC(=O)c4ccccc4C3=O)N(C)CCCCCl)O2)c(=O)[nH]c1=O (centres undefined)	11.7 µM (inactive)	16.4 µM (inactive)	0.813 µM (active)	1.6 µM (inactive)	2.49 µM (inactive)	14 µM (inactive)	12.7 µM (inactive)	12.7 µM (inactive)	3.23 µM (inactive)	5.05 µM (inactive)		10.6 µM (inactive)	11.1 µM (inactive)	13.6 µM (inactive)	12.6 µM (inactive)	12.1 µM (inactive)	11 µM (inactive)	12.8 µM (inactive)	10.6 µM (inactive)	5.81 µM (inactive)
COC(=O)/C=C(/C=C1/C(C#N)=C(N)N(c2ccc(Cl)cc2)C1(C)/C(=C\C(=O)OC)C(=O)OC)C(=O)OC (centres undefined)	35.9 µM (inactive)	16.8 µM (inactive)	15.1 µM (inactive)	28.2 µM (inactive)	19.5 µM (inactive)	15.8 µM (inactive)	17 µM (inactive)	18.1 µM (inactive)	15 µM (inactive)	25.1 µM (inactive)	43.9 µM (inactive)	21.5 µM (inactive)	18.9 µM (inactive)	22.6 µM (inactive)	29.2 µM (inactive)	12.9 µM (inactive)	33.7 µM (inactive)	17.9 µM (inactive)	17.2 µM (inactive)	23.1 µM (inactive)
CC(C)(C)N/C(N)=N/C#N	> 100 µM (inactive)	> 100 µM (inactive)	> 100 µM (inactive)	> 100 µM (inactive)	> 100 µM (inactive)	> 100 µM (inactive)	> 100 µM (inactive)	> 100 µM (inactive)	> 100 µM (inactive)	> 100 µM (inactive)	> 100 µM (inactive)	> 100 µM (inactive)	> 100 µM (inactive)	> 100 µM (inactive)	> 100 µM (inactive)	> 100 µM (inactive)	> 100 µM (inactive)	> 100 µM (inactive)		> 100 µM (inactive)
CC(C)(C)OC(=O)n1c2ccccc2c2c(=O)nc(N3CCCCC3)sc21	> 100 µM (inactive)	> 100 µM (inactive)	> 100 µM (inactive)	> 100 µM (inactive)	65.2 µM (inactive)		> 100 µM (inactive)	> 100 µM (inactive)	> 100 µM (inactive)	> 100 µM (inactive)	> 100 µM (inactive)	> 100 µM (inactive)	> 100 µM (inactive)	> 100 µM (inactive)	> 100 µM (inactive)	> 100 µM (inactive)	> 100 µM (inactive)	22.3 µM (inactive)	> 100 µM (inactive)	> 100 µM (inactive)
COc1ccc(C(=O)c2sc(N(C)C)nc2-c2ccccc2)cc1	20.6 µM (inactive)	19.8 µM (inactive)	34 µM (inactive)	36 µM (inactive)	20.2 µM (inactive)	31 µM (inactive)	32.9 µM (inactive)	34.4 µM (inactive)	33.7 µM (inactive)	33 µM (inactive)		42.6 µM (inactive)	23.4 µM (inactive)	33.7 µM (inactive)	33.7 µM (inactive)	28.9 µM (inactive)	22.5 µM (inactive)	32.1 µM (inactive)	15.8 µM (inactive)	35.4 µM (inactive)
COc1ccc2c(c1)c1c(n2CCN2CCOCC2)-c2cccc(OC)c2CC1	45.6 µM (inactive)	43.6 µM (inactive)	41.6 µM (inactive)	26.2 µM (inactive)	38.9 µM (inactive)	33.7 µM (inactive)	17.1 µM (inactive)	30.4 µM (inactive)	15.2 µM (inactive)	16.9 µM (inactive)		43.1 µM (inactive)	> 100 µM (inactive)	37 µM (inactive)	27.6 µM (inactive)	23.7 µM (inactive)	> 100 µM (inactive)	18.6 µM (inactive)	20.4 µM (inactive)	17.3 µM (inactive)
